In PubChem BioAssay AID1963866 (Molecular Pharmacology Branch, DTP, NCI, 2024):

Tested on: PDC KRAS tumor spheroids with HUVEC/MSC, viability
Experiment: Anticancer human tumor 349418-098-R-PDC patient-derived lung adenocarcinoma cell line growth inhibition [KRAS2]
Conditions: for viability, T/C: stronger effect = lower value; active = viability on the fitted dose curve at most 10% of control; inactive = the rest
How it was run: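 KRAS-mutant tumor cells were grown as spheroids with HUVEC endothelial cells and human MSCs as stroma. Targeted agents were tested alone and with KRAS pathway inhibitors. Doses started at or near clinical Cmax, or 10 microM, descending half-log.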

[1] = curve of first compound, second compound 0.0316 µM
[2] = curve of first compound, second compound 0.1 µM
[3] = curve of first compound, second compound 0.316 µM
[4] = curve of first compound, second compound 1 µM
[5] = curve of first compound, second compound 3.16 µM
[6] = second compound 0.0316 µM, first compound 0.0316 µM
[7] = second compound 0.0316 µM, first compound 0.1 µM
[8] = second compound 0.0316 µM, first compound 0.316 µM
[9] = second compound 0.0316 µM, first compound 1 µM
[10] = second compound 0.0316 µM, first compound 3.16 µM
[11] = second compound 0.0316 µM, first compound 10 µM
[12] = second compound 0.1 µM, first compound 0.0316 µM
[13] = second compound 0.1 µM, first compound 0.1 µM
[14] = second compound 0.1 µM, first compound 0.316 µM
[15] = second compound 0.1 µM, first compound 1 µM
[16] = second compound 0.1 µM, first compound 3.16 µM
[17] = second compound 0.1 µM, first compound 10 µM
[18] = second compound 0.316 µM, first compound 0.0316 µM
[19] = second compound 0.316 µM, first compound 0.1 µM
[20] = second compound 0.316 µM, first compound 0.316 µM
[21] = second compound 0.316 µM, first compound 1 µM
[22] = second compound 0.316 µM, first compound 3.16 µM
[23] = second compound 0.316 µM, first compound 10 µM
[24] = second compound 1 µM, first compound 0.0316 µM
[25] = second compound 1 µM, first compound 0.1 µM
[26] = second compound 1 µM, first compound 0.316 µM
[27] = second compound 1 µM, first compound 1 µM
[28] = second compound 1 µM, first compound 3.16 µM
[29] = second compound 1 µM, first compound 10 µM
[30] = second compound 3.16 µM, first compound 0.0316 µM
[31] = second compound 3.16 µM, first compound 0.1 µM
[32] = second compound 3.16 µM, first compound 0.316 µM
[33] = second compound 3.16 µM, first compound 1 µM
[34] = second compound 3.16 µM, first compound 3.16 µM
[35] = second compound 3.16 µM, first compound 10 µM
[36] = curve of first compound, second compound 10 µM
[37] = second compound 10 µM, first compound 0.0316 µM
[38] = second compound 10 µM, first compound 0.1 µM
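Also: spheroids exposed to compounds for seven days before readout.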

O=C(c1cc(Cc2n[nH]c(=O)c3ccccc23)ccc1F)N1CCN(C(=O)C2CC2)CC1 + C=CC(=O)N1CCN(c2nc(OCC3CCCN3C)nc3c2CCN(c2cccc4cccc(C)c24)C3)CC1CC#N
< 31.6 nM: IC50 [5]
189 nM: IC50 [1]
353 nM: IC50 [4]
inactive: viability, T/C [6] 86.9% | viability, T/C [7] 75.7% | viability, T/C [8] 29.1% | viability, T/C [9] 21.3% | viability, T/C [10] 17.5% | viability, T/C [11] 15.6% | viability, T/C [12] 81.2% | viability, T/C [13] 50.7% | viability, T/C [14] 50.7% | viability, T/C [15] 24.5% | viability, T/C [16] 20.9% | viability, T/C [17] 17.5% | viability, T/C [18] 91.6% | viability, T/C [19] 88% | viability, T/C [20] 68.2% | viability, T/C [21] 62.1% | viability, T/C [22] 23.1% | viability, T/C [23] 18.9% | viability, T/C [24] 51.9% | viability, T/C [25] 55.5% | viability, T/C [26] 52.5% | viability, T/C [27] 34.6% | viability, T/C [28] 26.7% | viability, T/C [29] 20.6%
1190 nM: IC50 [3]
active: viability, T/C [30] 0.11% | viability, T/C [31] 0.12% | viability, T/C [32] 0.11% | viability, T/C [33] 0.11% | viability, T/C [34] 0.12% | viability, T/C [35] 1.16%
168 nM: IC50 [2]

COC(=O)c1ccc2c(C(=Nc3ccc(N(C)C(=O)CN4CCN(C)CC4)cc3)c3ccccc3)c(O)[nH]c2c1 + C=CC(=O)N1CCN(c2nc(OCC3CCCN3C)nc3c2CCN(c2cccc4cccc(C)c24)C3)CC1CC#N
< 31.6 nM: IC50 [4] | IC50 [5]
320 nM: IC50 [2]
active: viability, T/C [23] 6.76% | viability, T/C [28] 0.91% | viability, T/C [29] 0.96% | viability, T/C [30] 0.1% | viability, T/C [31] 0.08% | viability, T/C [32] 0.07% | viability, T/C [33] 0.05% | viability, T/C [34] 0.03% | viability, T/C [35] 0.05%
inactive: viability, T/C [6] 65.9% | viability, T/C [7] 78.3% | viability, T/C [8] 58.5% | viability, T/C [9] 28.9% | viability, T/C [10] 15.6% | viability, T/C [11] 15% | viability, T/C [12] 88.9% | viability, T/C [13] 87.6% | viability, T/C [14] 46.3% | viability, T/C [15] 25.4% | viability, T/C [16] 9.49% | viability, T/C [17] 9.82% | viability, T/C [18] 75.2% | viability, T/C [19] 51% | viability, T/C [20] 42.3% | viability, T/C [21] 30.4% | viability, T/C [22] 10.6% | viability, T/C [24] 44.8% | viability, T/C [25] 24.2% | viability, T/C [26] 27.8% | viability, T/C [27] 23.8%
154 nM: IC50 [3]
456 nM: IC50 [1]

CC(C)n1nc(-c2ccc3oc(N)nc3c2)c2c(N)ncnc21 + CNCc1ccccc1-c1csc(C(C)Nc2nc(C)nc3cc(OC)c(OC)cc23)c1
0.987 nM: IC50 [2]
< 0.316 nM: IC50 [5] | IC50 [36]
active: viability, T/C [12] 8.36% | viability, T/C [13] 7.55% | viability, T/C (second compound 0.316 µM, first compound 0.01 µM) 8.02% | viability, T/C [18] 7.42% | viability, T/C [19] 6.91% | viability, T/C (second compound 1 µM, first compound 0.00316 µM) 9.14% | viability, T/C (second compound 1 µM, first compound 0.01 µM) 7.12% | viability, T/C [24] 5.59% | viability, T/C [25] 6.98% | viability, T/C (second compound 3.16 µM, first compound 0.000316 µM) 0.08% | viability, T/C (second compound 3.16 µM, first compound 0.001 µM) 0.18% | viability, T/C (second compound 3.16 µM, first compound 0.00316 µM) 0.03% | viability, T/C (second compound 3.16 µM, first compound 0.01 µM) 0.06% | viability, T/C [30] 0.06% | viability, T/C [31] 0.13% | viability, T/C (second compound 10 µM, first compound 0.000316 µM) 0.08% | viability, T/C (second compound 10 µM, first compound 0.001 µM) 0.08% | viability, T/C (second compound 10 µM, first compound 0.00316 µM) 0.07% | viability, T/C (second compound 10 µM, first compound 0.01 µM) 0.09% | viability, T/C [37] 0.09% | viability, T/C [38] 0.15%
0.558 nM: IC50 [4]
inactive: viability, T/C (second compound 0.1 µM, first compound 0.000316 µM) 103% | viability, T/C (second compound 0.1 µM, first compound 0.001 µM) 49.1% | viability, T/C (second compound 0.1 µM, first compound 0.00316 µM) 20.9% | viability, T/C (second compound 0.1 µM, first compound 0.01 µM) 8.09% | viability, T/C (second compound 0.316 µM, first compound 0.000316 µM) 106% | viability, T/C (second compound 0.316 µM, first compound 0.001 µM) 43.2% | viability, T/C (second compound 0.316 µM, first compound 0.00316 µM) 13.3% | viability, T/C (second compound 1 µM, first compound 0.000316 µM) 73.1% | viability, T/C (second compound 1 µM, first compound 0.001 µM) 26.3%
0.883 nM: IC50 [3]

CC(C)NCC(C(=O)N1CCN(c2ncnc3c2C(C)CC3O)CC1)c1ccc(Cl)cc1 (configuration not stated)
7.52% [middle of 5 runs]: viability, T/C (compound 10 µM)
inactive: viability, T/C (compound 0.0316 µM) 93.4% [middle of 5 runs] | viability, T/C (compound 0.1 µM) 77.8% [middle of 5 runs] | viability, T/C (compound 0.316 µM) 49.3% [middle of 5 runs] | viability, T/C (compound 1 µM) 27.4% [middle of 5 runs] | viability, T/C (compound 3.16 µM) 17.1% [middle of 5 runs]
334 nM [middle of 5 runs]: IC50 (curve of compound)

Cn1nccc1Nc1nccc(-c2cc3c(s2)C(C)(C)N(CCN2CCOCC2)C3=O)n1 + CC1OCC2(CCN(c3cnc(Sc4ccnc(N)c4Cl)c(N)n3)CC2)C1N
32.5 nM: IC50 [4]
36.4 nM: IC50 [5]
< 31.6 nM: IC50 [36]
54.2 nM: IC50 [2]
inactive: viability, T/C [12] 68.8% | viability, T/C [13] 27% | viability, T/C [14] 17.7% | viability, T/C [18] 61.4% | viability, T/C [19] 23.7% | viability, T/C [24] 51.1% | viability, T/C [25] 18.4% | viability, T/C [30] 54.6% | viability, T/C [31] 19.7% | viability, T/C [37] 47.9% | viability, T/C [38] 18.8%
active: viability, T/C [15] 8.51% | viability, T/C [16] 5.52% | viability, T/C [17] 4.04% | viability, T/C [20] 7.24% | viability, T/C [21] 6.49% | viability, T/C [22] 4.43% | viability, T/C [23] 4.11% | viability, T/C [26] 8.88% | viability, T/C [27] 4.35% | viability, T/C [28] 4.16% | viability, T/C [29] 4.13% | viability, T/C [32] 7.87% | viability, T/C [33] 3.17% | viability, T/C [34] 2.99% | viability, T/C [35] 3.09% | viability, T/C (second compound 10 µM, first compound 0.316 µM) 6.03% | viability, T/C (second compound 10 µM, first compound 1 µM) 2.89% | viability, T/C (second compound 10 µM, first compound 3.16 µM) 2.98% | viability, T/C (second compound 10 µM, first compound 10 µM) 2.7%
44.6 nM: IC50 [3]
